Values quoted from earlier work as cited in US9849144B2 (Healios Oncology Nutrition, LLC, priority 2013, dated 2017).

Experiments:
[1] = in vivo
[2] = tested on: CaCo-2 cells; conditions: glucose containing disaccharides

Row | relative humidity up to which crystalline form is stable and remains free flowing | SMILES | daily dose with no safety or toxicity concerns [1] | increase of GLN uptake [2]
1 | – | NC(=O)CC[C@H](N)C(=O)O [Glutamine, L-glutamine] | up to 40 grams a day | –
2 | up to 94 % relative humidity | OC[C@H]1O[C@H](O[C@H]2O[C@H](CO)[C@@H](O)[C@H](O)[C@H]2O)[C@H](O)[C@@H](O)[C@@H]1O [trehalose, α-D-glucopyranosyl-1,1-α-D-glucopyranoside] | – | a thousand fold
